Where a chain is given by its changes, count along the chain named.
What was measured:
R77L mouse tyrosinase = biological target: T1, R77L mouse tyrosinase (Mus musculus, UniProt P11344, R77L); assay: Tyrosinase protein stability in CHO cells with cycloheximide, R77L; type: cell-based; settings: 1 mM tyrosine
T1 construct: expressed in transfected cells; host or cells: CHO cells, pcDNA3.1
T1 sequence (P11344 19-533 R77L): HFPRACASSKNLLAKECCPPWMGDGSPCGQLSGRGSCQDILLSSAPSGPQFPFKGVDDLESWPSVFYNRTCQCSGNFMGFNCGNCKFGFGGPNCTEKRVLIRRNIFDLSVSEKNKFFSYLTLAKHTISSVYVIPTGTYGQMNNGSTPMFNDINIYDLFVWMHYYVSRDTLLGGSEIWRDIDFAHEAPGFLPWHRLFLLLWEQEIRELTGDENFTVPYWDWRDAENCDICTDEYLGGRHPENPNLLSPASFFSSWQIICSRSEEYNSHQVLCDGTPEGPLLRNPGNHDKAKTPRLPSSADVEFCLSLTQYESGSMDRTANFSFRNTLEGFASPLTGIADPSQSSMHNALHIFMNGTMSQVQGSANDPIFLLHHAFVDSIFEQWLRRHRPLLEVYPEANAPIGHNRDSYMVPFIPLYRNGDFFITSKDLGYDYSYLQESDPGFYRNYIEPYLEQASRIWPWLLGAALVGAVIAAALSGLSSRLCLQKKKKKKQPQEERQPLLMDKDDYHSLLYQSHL
Procedure: (§1) In Vitro Expression and Enzyme Activity. The expression construct of mouse Tyr was a kind gift of Dr. C. Olivares from the School of Medicine of the University of Murcia (Spain). This construct was prepared in the pcDNA3.1 expression vector (Invitrogen, Carlsbad, Calif.) using EcoRI/XbaI restriction sites and based on the mouse Tyr clone obtained as described previously in C. Olivares, et al., Biochem. J., 354:131 (2001). Constructs of tyrosinase gene mutant variants, with changes corresponding to missense mutations R77L and H420R in the mouse tyrosinase protein sequence, were created using standard methodologies (Mutagenex Inc., Piscataway, N.J.). […]
(§2) Chinese hamster ovary cells (CHO) (generous gift from Dr. J. T. Wroblewski from the Pharmacology Department, Georgetown University Medical Center, Washington D.C.) were grown at a temperature of about 37° C. in DMEM media, in the presence of 10% fetal bovine serum, 1% penicillin and 4.5 g […] per 0.5 liter of media. […] The total protein content in protein lysates was determined spectrophotometrically as a 280/260 ratio. Protein expression was analyzed by Western blotting, and GAPDH was used as an internal loading control. For the analysis, Western blots were scanned, intensities of protein bands were determined, and ratios of band intensities for the wild type or mutant variants, to that of GAPDH were calculated. […]

H420R mouse tyrosinase = biological target: T2, H420R mouse tyrosinase (Mus musculus, UniProt P11344, H420R); assay: Tyrosinase protein stability in CHO cells with cycloheximide, H420R; type: cell-based; settings: 1 mM tyrosine, later time points (9 and 24 hours)
T2 construct: expressed in transfected cells; host or cells: CHO cells, pcDNA3.1
T2 sequence (P11344 19-533 H420R): T1 sequence (P11344 19-533 R77L) with L59R, H402R
Procedure: as §1, §2

N[C@@H](Cc1ccc(O)cc1)C(=O)O [tyrosine]
Stabilization of R77L mutant tyrosinase protein relative to GAPDH (R77L mouse tyrosinase): not statistically significant
Stability of H420R mutant tyrosinase protein relative to GAPDH (H420R mouse tyrosinase): improved the stability

From patent US9364448B2, “Nitisinone for treatment of oculocutaneous/ocular albinism and for increasing pigmentation” (The United States of America, as represented by the …, priority 2010, dated 2016)
